In assay [1] the test system is fundic pouch dog. As to the kind of experiment: Suppressing action on gastric acid secretion (histamine stimulation) in fundic pouch dog. The note with it: for Amount of gastric juice secretion: histamine stimulation 0.2 mg/kg/hr, control 116.1 ± 12.3, mean ± standard error for 6 samples. The class given is in vivo. The procedure: (§1) An effect on gastric acid secretion by stimulation under awakening was studied by using (fundic pouch dog). For preparation of the fundic pouch dog, a mongrel dog after starvation overnight was subjected to sterile ventrotomy under anesthesia using sodium pentobarbital (30 mg/kg, i.v.), and a fistula was attached to a part of the corpus ventriculi. After recovery period for two weeks, the dog was fixed to the Pavlov's stand, and gastric juice was collected every 15 minutes for 4 hours under histamine stimulation (0.2 mg/kg/hr). A volume of each collected gastric juice was recorded, and the juice was titrated with 0.01N NaOH using pH automatic measuring apparatus (Radiometer Copenhagen). The test compound, encapsulated in a gelatin capsule, was orally administered one hour before histamine administration.

The subject of assay [2] is fundic pouch dog. As to the kind of experiment: Suppressing action on gastric acid secretion (tetragastrin stimulation) in fundic pouch dog. The class given is in vivo. The note with it: for Amount of gastric juice secretion: tetragastrin stimulation 2 μg/kg/hr, control 40.1 ± 3.9, mean ± standard error for 6 samples. The procedure:
as §1
Experiment was conducted in a similar manner as Example 1 except that the stimulating agent was replaced with tetragastrin(2 μg/kg/hr).

Regarding `O=C(N[C@H]1CN2CCC1CC2)c1cnc2ccsc2c1O` [Test compound, R-(−)-N-(1-azabicyclo[2.2.2]oct-3-yl)-7-hydroxythieno[3,2-b]-pyridine-6-carboxamide], the “Amount of gastric juice secretion” value was 76.8 ± 7.4 mEq/4 hr in the assay with fundic pouch dog [1] (3 μg/kg oral (gelatin capsule) one hour before histamine), 61.9 ± 5.5 mEq/4 hr with fundic pouch dog [1] (10 μg/kg oral (gelatin capsule) one hour before histamine), 26.7 ± 7.8 mEq/4 hr with fundic pouch dog [2] (10 μg/kg oral) and 12.9 ± 5.3 mEq/4 hr in the assay with fundic pouch dog [2] (30 μg/kg oral). For the same compound, in the assay on fundic pouch dog [1] (histamine stimulation, fundic pouch dog), the “secretion of gastric juice by histamine stimulation (result in words)” value was “suppressed”. The “secretion of gastric juice by tetragastrin stimulation (result in words)” value in the assay on fundic pouch dog [2] (tetragastrin stimulation, fundic pouch dog) is “suppressed”.
